Converted amounts (≈) assume the structure as drawn.
Experiments:
[1] = system: U937KN1272, a protease resistant strain; test: Long term in vitro study, U937KN1272, reverse transcriptase; type: cell-based, HIV
Protocol: A microtiter-based reveres transcriptase (RT) reaction is utilized (Buckheit et al (1991) AIDS Research and Human Retroviruses 7:295-302). Tritiated thymidine triphosphate (NEN)(TTP) is resuspended in distilled water at 5 Ci/ml. Poly rA and oligo dT are prepared as a stock solution which is kept at −20° C. The RT reaction buffer is prepared fresh on a daily basis and consists of 125 μl 1M EGTA, 125 μl water, 125 μl Triton X-100, 50 μl Tris (pH 7.4), 50 μl 1 MDDT, and 40 μl 1M MgCl2. These three solutions are mixed together in a ratio of 1 part TTP, 2.5 parts poly rA:oligo dT, 2.5 parts reaction buffer and 4 parts distilled water. Ten microliters of this reaction mixture is placed in a round bottom microtiter place and 15 μl of virus containing supernatant is added and mixed. The plate is incubated at 37° C. for 60 minutes. Following reaction, the reaction volume is spotted onto filter mats, washed 6 times for 5 minutes each in a 5% sodium phosphate buffer, 2 times for 1 minute each in distilled water, 2 times for 1 minute each in 70% ethanol, and then dried. The dried filter mat is placed in a plastic sample bag, Betaplate scintillation fluid is added and the bag is heat sealed. Incorporated radioactivity is quantified utilizing a Wallac Microbeta scintillation counter.
Acute infection of most established human cell lines with HIV-1 results in the eventual establishment of a constitutive virus-producing chronically infected cell line. The cells can be passaged for long periods of time in culture without loss of virus production. These cells may be utilized to evaluate the effects of anti-HIV compounds on syncytium formation or to evaluate the effects of anti-HIV compounds on levels of virus production from these cells. […] Each of the cells contains an integrated HIV genome or provirus. Chronically infected CEM, H9 and U937 cell lines have been prepared and cultured by Southern Research Institute, Frederick Md. and are available from them.
CEM-SS cells chronically infected with HIV isolate, for example SKI (CEM-SKI) are cultured in RPMI1640 tissue culture medium supplemented with 10% fetal bovine serum and antibiotics. […] CEM-SKI or other infected cells with no added drug are used as the control cells. Cells are allowed to grow to a density of approximately 1×10^6 cells/ml and are then passaged at a 1:10 dilution. […] The drug concentration in the flask is then increased two-fold and the cells maintained as above.
The cell populations contain integrated copies of the HIV genome and constitutively produce HIV at relatively high levels or are latently infected and only produce virus after stimulation with phorbol esters, tumor necrosis factor or IL6 (U1 and ACH2). Reductions in virus products were observed when quantifying supernatant reverse transcriptase activity,
Similar results are obtained with U937KN1272, a protease resistant strain, reported below.

[2] = system: Curvularia lunata; test: Anti-fungal activity (NCCLS M-27A based), Curvularia lunata; type: cell-based
Protocol: It was active against cryptococcus neoformans and curvularai lunata. The cidal activity for the C. neoformans is high enough that it is clear […] against this yeast. This test was conducted using a method based upon NCCLS reference method M-27A published in 1997. Solvent, medium and growth controls were set-up with the tests. Once these were read to validate the test performance, the QC fungi were read to insure they had expected results. These steps validated the test system. DMSO was used as a drug-chemical solvent. […] The 90% cut-off is necessary for azoles, which are static and not cidal. The FMC or cidal level was determined by sub-culturing a sample from each tube showing no growth.

Which results are given for c1csc(-c2nc3cccnc3[nH]2)c1 [2-(2-thienyl)-imidazolo [4,5-b]pyridine]?
reverse transcriptase data ([1]; 7 μg/ml, day 4): 3503; reverse transcriptase data ([1]; 7 μg/ml, day 11): 10001; reverse transcriptase data ([1]; 7 μg/ml, day 18): 14176; reverse transcriptase data ([1]; 7 μg/ml, day 25): 14084; reverse transcriptase data ([1]; 7 μg/ml, day 32): 9919; reverse transcriptase data ([1]; 7 μg/ml, day 39): 8890; reverse transcriptase data ([1]; 7 μg/ml, day 46): 9238; reverse transcriptase data ([1]; 7 μg/ml, day 53): 9074; reverse transcriptase data ([1]; 7 μg/ml, day 60): 7460; reverse transcriptase data ([1]; 7 μg/ml, day 67): 7863; reverse transcriptase data ([1]; 7 μg/ml, day 71): 8402; reverse transcriptase data ([1]; 7 μg/ml, day 74): 8976; reverse transcriptase data ([1]; 7 μg/ml, day 88): 8522; reverse transcriptase data ([1]; 7 μg/ml, day 95): 9358; reverse transcriptase data ([1]; 7 μg/ml, day 102): 9221; reverse transcriptase data ([1]; 7 μg/ml, day 109): 8245; reverse transcriptase data ([1]; 15 μg/ml, day 4): 2354; reverse transcriptase data ([1]; 15 μg/ml, day 11): 7962; reverse transcriptase data ([1]; 15 μg/ml, day 18): 11866; reverse transcriptase data ([1]; 15 μg/ml, day 25): 13386; reverse transcriptase data ([1]; 15 μg/ml, day 32): 10413; reverse transcriptase data ([1]; 15 μg/ml, day 39): 8675; reverse transcriptase data ([1]; 15 μg/ml, day 46): 8124; reverse transcriptase data ([1]; 15 μg/ml, day 53): 7645; reverse transcriptase data ([1]; 15 μg/ml, day 60): 5534; reverse transcriptase data ([1]; 15 μg/ml, day 67): 4321; reverse transcriptase data ([1]; 15 μg/ml, day 71): 5364; reverse transcriptase data ([1]; 15 μg/ml, day 74): 6974; reverse transcriptase data ([1]; 15 μg/ml, day 88): 4297; reverse transcriptase data ([1]; 15 μg/ml, day 95): 5224; reverse transcriptase data ([1]; 15 μg/ml, day 102): 5361; reverse transcriptase data ([1]; 15 μg/ml, day 109): 7833; reverse transcriptase data ([1]; 30 μg/ml, day 4): 1209; reverse transcriptase data ([1]; 30 μg/ml, day 11): 4377; reverse transcriptase data ([1]; 30 μg/ml, day 18): 6376; reverse transcriptase data ([1]; 30 μg/ml, day 25): 9293; reverse transcriptase data ([1]; 30 μg/ml, day 32): 9903; reverse transcriptase data ([1]; 30 μg/ml, day 39): 6852; reverse transcriptase data ([1]; 30 μg/ml, day 46): 2502; reverse transcriptase data ([1]; 30 μg/ml, day 53): 2760; reverse transcriptase data ([1]; 30 μg/ml, day 60): 2478; reverse transcriptase data ([1]; 30 μg/ml, day 67): 1643; reverse transcriptase data ([1]; 30 μg/ml, day 71): 4820; reverse transcriptase data ([1]; 30 μg/ml, day 74): 3270; reverse transcriptase data ([1]; 30 μg/ml, day 88): 3184; reverse transcriptase data ([1]; 30 μg/ml, day 95): 2031; reverse transcriptase data ([1]; 30 μg/ml, day 102): 3427; reverse transcriptase data ([1]; 30 μg/ml, day 109): 1356; MIC ([2]; Curvularia lunata, growth inhibited or reduced at least 90%): 0.03 µg/mL (≈ 0.149 µM); activity against Curvularia lunata (in words) ([2]; in vitro): active

Source: patent US20030232851A1, “Viral treatment” (The Procter & Gamble Company, priority 1999, published 2003)
